pEC50, pIC50: −log10 of the molar value. In brackets after ≈: the same amount, converted by molar mass. Activity calls are given as the source filed them. The rule behind the calls is not given here.
What was measured:
[1] = Solubility of the compound in FeSSIF at pH 6.5; format: ADME
[2] = molecular target: Cytochrome P450 2C9 (Homo sapiens, UniProt P11712); assay: Inhibition of CYP2C9 in human liver microsomes; format: ADME, Microsome
[3] = molecular target: T1, Cytochrome P450 2B6 (Homo sapiens, UniProt P20813); assay: Inhibition of CYP2B6 in human liver microsomes; format: ADME, Microsome
T1 sequence (P20813 whole entry): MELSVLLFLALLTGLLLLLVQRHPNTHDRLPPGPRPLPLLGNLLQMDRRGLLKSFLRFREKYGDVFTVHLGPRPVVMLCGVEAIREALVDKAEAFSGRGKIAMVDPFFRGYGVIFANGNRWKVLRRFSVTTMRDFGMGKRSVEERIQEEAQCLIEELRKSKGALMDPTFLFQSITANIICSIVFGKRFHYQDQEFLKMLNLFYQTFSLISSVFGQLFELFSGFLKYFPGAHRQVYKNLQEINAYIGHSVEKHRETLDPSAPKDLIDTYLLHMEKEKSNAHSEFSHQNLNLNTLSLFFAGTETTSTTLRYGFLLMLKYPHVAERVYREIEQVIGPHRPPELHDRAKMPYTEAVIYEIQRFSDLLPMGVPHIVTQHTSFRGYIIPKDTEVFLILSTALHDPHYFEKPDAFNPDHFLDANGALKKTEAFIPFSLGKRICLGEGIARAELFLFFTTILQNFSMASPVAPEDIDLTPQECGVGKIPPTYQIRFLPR

[4] = Toxicity in Sprague-Dawley rat assessed as effect on pancrease at 300 mg/kg, po measured for 1 months; format: organism-based; conditions: in vivo, 730 h
[5] = Permeability of compound across apical to basolateral side in dog MDCK cells; format: ADME, cell-based, Canis lupus familiaris; conditions: read-out: permeability
[6] = Tmax in rat at 40 mg/kg bid; format: ADME, organism-based; conditions: in vivo
[7] = Toxicity in cynomolgus monkey assessed as effect on pancrease at 30 mg/kg, po measured for 1 months; format: organism-based, Macaca fascicularis; conditions: in vivo, 730 h
[8] = molecular target: Cytochrome P450 2D6 (Homo sapiens, UniProt P10635); assay: Inhibition of CYP2D6 in human liver microsomes; format: ADME, Microsome
Sequence of Cytochrome P450 2D6 (P10635 whole entry): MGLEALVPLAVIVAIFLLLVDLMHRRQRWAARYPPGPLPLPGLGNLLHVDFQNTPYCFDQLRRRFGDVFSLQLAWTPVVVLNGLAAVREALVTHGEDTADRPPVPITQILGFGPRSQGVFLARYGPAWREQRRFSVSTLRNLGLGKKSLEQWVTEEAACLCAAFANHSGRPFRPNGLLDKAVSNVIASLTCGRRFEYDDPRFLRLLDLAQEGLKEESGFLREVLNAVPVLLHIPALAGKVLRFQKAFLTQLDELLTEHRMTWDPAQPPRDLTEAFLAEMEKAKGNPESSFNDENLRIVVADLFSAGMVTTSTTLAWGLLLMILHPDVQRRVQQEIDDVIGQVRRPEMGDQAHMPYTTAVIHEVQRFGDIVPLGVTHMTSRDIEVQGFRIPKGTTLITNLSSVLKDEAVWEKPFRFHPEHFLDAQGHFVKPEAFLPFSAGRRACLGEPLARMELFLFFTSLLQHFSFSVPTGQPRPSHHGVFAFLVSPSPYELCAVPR

[9] = Solubility of the compound in FaSSIF at pH 6.5; format: ADME
[10] = AUC (0 to 24 hrs) in rat at 160 mg/kg bid; format: ADME, organism-based; parameters: dose 160 mg/kg; conditions: in vivo
[11] = Toxicity in Sprague-Dawley rat assessed as decrease in islet number at 300 mg/kg, po measured for 1 months; format: organism-based; conditions: in vivo, 730 h
[12] = Cmax in rat at 40 mg/kg bid; format: ADME, organism-based; parameters: dose 40 mg/kg; conditions: in vivo
[13] = Tmax in rat at 160 mg/kg bid; format: ADME, organism-based; conditions: in vivo
[14] = AUC (0 to 24 hrs) in rat at 40 mg/kg bid; format: ADME, organism-based; parameters: dose 40 mg/kg; conditions: in vivo
[15] = test system: Rattus norvegicus; assay: Anti-hyperglycemic activity against Sprague-Dawley rat assessed as reduction in plasma glucose AUC at 0.3 mg/kg, po measured for 20 to 120 mins by OGTT analysis; format: functional, organism-based; conditions: time lower 20.0 min, time upper […]
[16] = Toxicity in rat assessed as NOAEL by measuring AUC (0 to 24 hrs) measured for 28 days; conditions: in vivo, time 28 day
[17] = AUC (0 to 24 hrs) in rat at 150 mg/kg, po bid; format: ADME, organism-based; parameters: dose 150 mg/kg, route po; conditions: in vivo
[18] = Cmax in rat at 160 mg/kg bid; format: ADME, organism-based; parameters: dose 160 mg/kg; conditions: in vivo
[19] = Toxicity in Sprague-Dawley rat assessed as decrease in islet size at 300 mg/kg, po measured for 1 months; format: organism-based; parameters: scale not given: the % may be the effect or the level left; conditions: in vivo, 730 h
[20] = Toxicity in Sprague-Dawley rat assessed as islet cell cytoplasmic alteration at 60 mg/kg, po measured for 1 months; format: organism-based; conditions: in vivo, 730 h
[21] = Solubility in phosphate buffer at pH 6.5; format: physicochemical
[22] = Solubility of the compound in FeSSIF at pH 5; format: ADME
[23] = Cmax in rat at 400 mg/kg bid; format: ADME, organism-based; parameters: dose 400 mg/kg; conditions: in vivo
[24] = molecular target: Free fatty acid receptor 1 (Homo sapiens, UniProt O14842); assay: Positive allosteric modulation of human GPR40 expressed in HEK293 cells assessed as cAMP accumulation; format: cell-based
Sequence of Free fatty acid receptor 1 (O14842 whole entry): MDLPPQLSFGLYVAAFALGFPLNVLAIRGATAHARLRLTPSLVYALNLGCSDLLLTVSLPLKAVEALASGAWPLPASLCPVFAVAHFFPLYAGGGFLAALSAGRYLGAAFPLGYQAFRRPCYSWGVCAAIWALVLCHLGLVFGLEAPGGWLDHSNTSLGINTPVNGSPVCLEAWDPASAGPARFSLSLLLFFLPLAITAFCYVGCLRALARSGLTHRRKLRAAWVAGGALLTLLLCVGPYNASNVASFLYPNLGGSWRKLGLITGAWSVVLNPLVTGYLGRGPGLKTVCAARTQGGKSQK

[25] = molecular target: T2, Cytochrome P450 2C8 (Homo sapiens, UniProt P10632); assay: Inhibition of CYP2C8 in human liver microsomes; format: ADME, Microsome
T2 sequence (P10632 whole entry): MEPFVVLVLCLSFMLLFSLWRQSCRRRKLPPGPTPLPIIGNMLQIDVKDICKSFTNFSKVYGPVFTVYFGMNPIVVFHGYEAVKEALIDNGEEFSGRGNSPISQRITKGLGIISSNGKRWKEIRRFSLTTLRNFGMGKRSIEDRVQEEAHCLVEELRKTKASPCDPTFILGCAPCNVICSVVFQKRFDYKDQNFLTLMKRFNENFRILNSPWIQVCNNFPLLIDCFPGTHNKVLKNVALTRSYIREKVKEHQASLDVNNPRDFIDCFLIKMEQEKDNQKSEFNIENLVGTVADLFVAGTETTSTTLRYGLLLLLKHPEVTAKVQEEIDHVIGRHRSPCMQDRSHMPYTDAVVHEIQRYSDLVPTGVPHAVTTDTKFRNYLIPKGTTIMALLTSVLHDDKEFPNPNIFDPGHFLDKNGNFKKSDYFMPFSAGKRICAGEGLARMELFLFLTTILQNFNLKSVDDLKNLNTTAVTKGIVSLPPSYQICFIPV

[26] = molecular target: Cytochrome P450 2C19 (Homo sapiens, UniProt P33261); assay: Inhibition of CYP2C19 in human liver microsomes; format: ADME, Microsome
Sequence of Cytochrome P450 2C19 (P33261 whole entry): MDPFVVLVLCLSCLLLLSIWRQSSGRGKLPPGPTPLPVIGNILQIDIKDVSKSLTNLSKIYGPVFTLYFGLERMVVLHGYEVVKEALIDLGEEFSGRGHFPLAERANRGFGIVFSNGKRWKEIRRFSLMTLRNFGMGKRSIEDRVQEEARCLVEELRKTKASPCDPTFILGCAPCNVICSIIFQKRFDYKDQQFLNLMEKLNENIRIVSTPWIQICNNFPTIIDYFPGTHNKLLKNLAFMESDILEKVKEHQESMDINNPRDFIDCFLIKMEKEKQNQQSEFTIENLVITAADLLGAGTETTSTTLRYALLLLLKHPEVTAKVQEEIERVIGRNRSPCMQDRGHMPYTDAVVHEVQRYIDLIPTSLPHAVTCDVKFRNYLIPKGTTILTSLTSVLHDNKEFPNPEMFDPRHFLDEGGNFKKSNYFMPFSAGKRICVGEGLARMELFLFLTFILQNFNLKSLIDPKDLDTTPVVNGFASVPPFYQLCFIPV

[27] = Tmax in rat at 400 mg/kg bid; format: ADME, organism-based; conditions: in vivo
[28] = Toxicity in Sprague-Dawley rat assessed as effect on pancrease at AUC measured for 1 months; conditions: in vivo, 730 h
[29] = AUC (0 to 24 hrs) in rat at 400 mg/kg bid; format: ADME, organism-based; parameters: dose 400 mg/kg; conditions: in vivo
[30] = test system: Rattus norvegicus; assay: Hyperglycemic activity in Sprague-Dawley rat assessed as effect on blood glucose level at 150 mg/kg, qd by glucometer; format: functional, organism-based
[31] = molecular target: Cytochrome P450 3A4 (Homo sapiens, UniProt P08684); assay: Inhibition of CYP3A4 in human liver microsomes; format: ADME, Microsome
Sequence of Cytochrome P450 3A4 (P08684 whole entry): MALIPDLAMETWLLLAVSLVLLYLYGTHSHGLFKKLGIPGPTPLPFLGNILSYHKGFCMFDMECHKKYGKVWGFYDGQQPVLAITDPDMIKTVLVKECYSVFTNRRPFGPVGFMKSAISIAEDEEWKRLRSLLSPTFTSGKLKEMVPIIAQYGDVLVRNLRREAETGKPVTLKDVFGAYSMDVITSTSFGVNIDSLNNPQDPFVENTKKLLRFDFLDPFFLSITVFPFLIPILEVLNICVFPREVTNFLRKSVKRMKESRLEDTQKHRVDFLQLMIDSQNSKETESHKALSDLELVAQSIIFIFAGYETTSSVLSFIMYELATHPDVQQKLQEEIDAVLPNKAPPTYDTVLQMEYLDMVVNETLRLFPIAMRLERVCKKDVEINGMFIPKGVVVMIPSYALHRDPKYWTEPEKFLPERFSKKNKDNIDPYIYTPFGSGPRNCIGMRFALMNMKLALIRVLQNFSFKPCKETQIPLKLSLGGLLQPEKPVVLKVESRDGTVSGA

Sequence of Cytochrome P450 2C9 (P11712 whole entry): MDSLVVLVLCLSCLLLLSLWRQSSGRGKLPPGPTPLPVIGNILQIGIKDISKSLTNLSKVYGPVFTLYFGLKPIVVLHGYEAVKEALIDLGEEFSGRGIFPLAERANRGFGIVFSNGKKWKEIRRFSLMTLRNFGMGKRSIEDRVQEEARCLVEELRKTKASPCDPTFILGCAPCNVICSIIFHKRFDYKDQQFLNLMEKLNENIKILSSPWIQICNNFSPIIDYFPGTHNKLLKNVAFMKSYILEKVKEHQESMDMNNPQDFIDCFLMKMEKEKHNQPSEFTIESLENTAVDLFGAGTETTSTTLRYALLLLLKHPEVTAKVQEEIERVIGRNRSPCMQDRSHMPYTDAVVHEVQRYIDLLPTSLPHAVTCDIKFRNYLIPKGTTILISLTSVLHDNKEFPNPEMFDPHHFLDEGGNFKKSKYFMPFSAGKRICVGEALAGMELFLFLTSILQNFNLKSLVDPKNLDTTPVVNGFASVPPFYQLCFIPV

Structure (SMILES): COc1cc(N2CC[C@@H](Oc3ccc(N4N=C(C(F)(F)F)[C@@H](C)[C@@H]4CC(=O)O)cc3)[C@H](C)C2)c(Cl)cn1
- solubility [1]: 59 µg/mL (≈ 109 µM)
- pIC50 [2]: 4.85
- pIC50 [3]: 5.09
- Activity [4]: Non-Toxic
- Papp A→B [5]: 142 nm/s
- Tmax [6]: 8 h
- Activity [7]: Non-Toxic
- pIC50 [8]: 4.40
- solubility [9]: 9 µg/mL (≈ 16.6 µM)
- AUC [10]: 1100 µM·h
- Activity [11]: Toxic
- Cmax [12]: 64 µM
- Tmax [13]: 8 h
- AUC [14]: 549 µM·h
- Activity [15]: inactive
- AUC at […] [16]: 404 µM·h
- AUC [17]: 557 µM·h
- Cmax [18]: 106 µM
- Activity [19]: 50%
- Activity [20]: Toxic
- solubility [21]: 1 µg/mL (≈ 1.85 µM)
- solubility [22]: 8 µg/mL (≈ 14.8 µM)
- Cmax [23]: 271 µM
- pEC50 [24]: 5.44
- pIC50 [25]: 5.77
- pIC50 [26]: 4.42
- Tmax [27]: 8 h
- Activity [28]: Non-Toxic
- AUC [29]: 3370 µM·h
- Activity [30]: Active
- pIC50 [31]: 5.47
